Measurements reported in patent US6706705B1, “Quinazoline derivatives” (Nippon Chemiphar Co., Ltd., priority 1994, dated 2004).

Key:
Type in all cases: in vivo, rat
[1] = system: male spontaneously hypertensive rats (SHR); assay: Pharmacological Test-1: blood pressure after oral administration in spontaneously hypertensive rats; conditions: for Blood Pressure (mmHg) 1 hr. / Blood Pressure (mmHg) 3 hrs. / Blood Pressure (mmHg) 6 hrs. / Blood Pressure (mmHg) 9 hrs. / Blood Pressure (mmHg) 12 hrs.: oral; for Blood Pressure (mmHg) 1 hr.: variation of blood pressure 1 hr. after administration; for Blood Pressure (mmHg) 3 hrs.: variation of blood pressure 3 hrs. after administration; for Blood Pressure (mmHg) 6 hrs.: variation of blood pressure 6 hrs. after administration; for blood pressure depression, result in words / lapse of time until approximately maximum blood pressure depression: summary of Table 1; for Blood Pressure (mmHg) 9 hrs.: variation of blood pressure 9 hrs. after administration; for Blood Pressure (mmHg) 12 hrs.: variation of blood pressure 12 hrs. after administration
Method: (§1) This test was performed using male spontaneously hypertensive rats (SHR, 15 weeks old or older, 300 to 400 g). Under halothane anesthesia, the left femoral arteries of the rats were cannulated using a polyethylene cannula. The cannula was connected to a device for blood pressure measurement. Then, the rats were placed in the Bollman-type cages. After one hour, it was confirmed that the blood pressure was kept constant. When the rats waked, they were orally administered with the test compound, and variation of blood pressure after the administration was measured as time passed. The test compound was suspended or dissolved in 1% aqueous methylcellulose solution and administered in an amount of 0.2 mL per 100 g of body weight.

[2] = system: normal male rats of Wister strain; assay: Pharmacological Test-4: blood pressure after oral administration in normal rats; conditions: for Blood Pressure (mmHg) 1 hr. / Blood Pressure (mmHg) 3 hrs. / Blood Pressure (mmHg) 6 hrs. / Blood Pressure (mmHg) 9 hrs. / Blood Pressure (mmHg) 12 hrs.: oral; for Blood Pressure (mmHg) 1 hr.: 1 hr. after administration; for Blood Pressure (mmHg) 3 hrs.: 3 hrs. after administration; for Blood Pressure (mmHg) 6 hrs.: 6 hrs. after administration; for Blood Pressure (mmHg) 9 hrs.: 9 hrs. after administration; for Blood Pressure (mmHg) 12 hrs.: 12 hrs. after administration; for effect on normal blood pressure, result in words: summary of Table 4
Method: as §1
(§2) This test was performed by measuring the blood pressure in the same manner as in the above pharmacological test-1 using normal male rats of Wister strain (15 weeks old or older, 300 to 400 g, not-fasted). The test results are set forth in Table 4.The compound of the invention examined in this test was the same as that employed in the pharmacological test-1.

[3] = system: male Dahl salt sensitive male rats (DahlSR); assay: Pharmacological Test-3: blood pressure after oral administration in Dahl salt sensitive rats; conditions: 3 mg/kg; for Blood Pressure (mmHg) 1 hr.: 1 hr. after administration; for Blood Pressure (mmHg) 3 hrs.: 3 hrs. after administration; for Blood Pressure (mmHg) 6 hrs.: 6 hrs. after administration; for Blood Pressure (mmHg) 9 hrs.: 9 hrs. after administration; for Blood Pressure (mmHg) 12 hrs.: 12 hrs. after administration
Method: as §1
This test was performed in the same manner as in the above pharmacological test-1 using male Dahl salt sensitive male rats (DahlSR, 15 weeks old or older, 300 to 400 g, not-fasted). The compound of the invention examined in this test was the same as that employed in the pharmacological test-1.

[4] = system: male DOCA salt hypertensive rats (DOCAR); assay: Pharmacological Test-2: blood pressure after oral administration in DOCA salt hypertensive rats; conditions: for Blood Pressure (mmHg) 1 hr. / Blood Pressure (mmHg) 3 hrs. / Blood Pressure (mmHg) 6 hrs. / Blood Pressure (mmHg) 9 hrs. / Blood Pressure (mmHg) 12 hrs.: DOCA salt hypertensive rats, oral, 3 mg/kg; for Blood Pressure (mmHg) 1 hr.: 1 hr. after administration; for Blood Pressure (mmHg) 3 hrs.: 3 hrs. after administration; for Blood Pressure (mmHg) 6 hrs.: 6 hrs. after administration; for Blood Pressure (mmHg) 9 hrs.: 9 hrs. after administration; for Blood Pressure (mmHg) 12 hrs.: 12 hrs. after administration; for lapse of time until approximately maximum blood pressure depression: summary of 'Tables 1 and 2' as printed after Table 3
Method: as §1
as §2, with “using” for “using normal”, “male DOCA salt hypertensive” for “male”, “(DOCAR, 15” for “of Wister strain (15”, “2.The” for “4.The”

Compound	Blood Pressure (mmHg) 1 hr. ([1]; 1 mg/kg) [mmHg]	Blood Pressure (mmHg) 3 hrs. ([1]; 1 mg/kg) [mmHg]	Blood Pressure (mmHg) 6 hrs. ([1]; 1 mg/kg) [mmHg]	Blood Pressure (mmHg) 1 hr. ([1]; 3 mg/kg) [mmHg]	Blood Pressure (mmHg) 3 hrs. ([1]; 3 mg/kg) [mmHg]	Blood Pressure (mmHg) 6 hrs. ([1]; 3 mg/kg) [mmHg]	blood pressure depression, result in words [1]	lapse of time until approximately maximum blood pressure depression [1]	Blood Pressure (mmHg) 1 hr. ([2]; 3 mg/kg) [mmHg]	Blood Pressure (mmHg) 3 hrs. ([2]; 3 mg/kg) [mmHg]	Blood Pressure (mmHg) 6 hrs. ([2]; 3 mg/kg) [mmHg]	Blood Pressure (mmHg) 9 hrs. ([2]; 3 mg/kg) [mmHg]	Blood Pressure (mmHg) 12 hrs. ([2]; 3 mg/kg) [mmHg]	effect on normal blood pressure, result in words [2]	Blood Pressure (mmHg) 1 hr. [3] [mmHg]	Blood Pressure (mmHg) 3 hrs. [3] [mmHg]	Blood Pressure (mmHg) 6 hrs. [3] [mmHg]	Blood Pressure (mmHg) 9 hrs. [3] [mmHg]	Blood Pressure (mmHg) 12 hrs. [3] [mmHg]	Blood Pressure (mmHg) 9 hrs. ([1]; 1 mg/kg) [mmHg]	further results
COc1cc2nc(N3CCN(C(=O)c4ccc(O)cc4)CC3)nc(N)c2cc1OC.Cl [Comp. [D], 4-amino-2-[4-(4-hydroxybenzoyl)-1-piperazinyl]-6,7-dimethoxyquinazoline hydrochloride]	2	−3	−6	−5	−6	−8	very little blood pressure depression														
COc1cc2nc(N3CCN(C(=O)c4ccccc4)CC3)nc(N)c2cc1OC.Cl [Comp. [C], 4-amino-2-(4-benzoyl-1-piperazinyl)-6,7-dimethoxyquinazoline hydrochloride]	−36	−31	−39	−64	−64	−61		one hour													
COc1cc2nc(N3CCN(C(=O)C4COc5ccccc5O4)CC3)nc(N)c2cc1OC (stereo not drawn) [Doxa., doxazosin mesilate]	−19	−21	−19	−35	−32	−29			−24	−19	−20	−22	−23	largely decrease normal blood pressure							Blood Pressure (mmHg) 1 hr. ([1]; 10 mg/kg): −37 mmHg; Blood Pressure (mmHg) 3 hrs. ([1]; 10 mg/kg): −50 mmHg; Blood Pressure (mmHg) 6 hrs. ([1]; 10 mg/kg): −35 mmHg
COc1cc2nc(N3CCN(C(=O)c4cc(C(C)(C)C)c(O)c(C(C)(C)C)c4)CC3)nc(N)c2cc1OC.Cl [Invention, 4-amino-2-[4-(3,5-di-t-butyl-4-hydroxybenzoyl)-1-piperazinyl]-6,7-dimethoxyquinazoline hydrochloride]	−4	−25	−41	−29	−60	−75	slowly decreases the blood pressure	six hours	−5	−9	−19	−21	−24	affects the normal blood pressure only slightly	−11	−25	−49	−50	−52	−44	Blood Pressure (mmHg) 12 hrs. ([1]; 1 mg/kg): −39 mmHg; Blood Pressure (mmHg) 9 hrs. ([1]; 3 mg/kg): −64 mmHg; Blood Pressure (mmHg) 12 hrs. ([1]; 3 mg/kg): −60 mmHg; Blood Pressure (mmHg) 1 hr. ([2]; 1 mg/kg): −4 mmHg; Blood Pressure (mmHg) 3 hrs. ([2]; 1 mg/kg): −11 mmHg; Blood Pressure (mmHg) 6 hrs. ([2]; 1 mg/kg): −21 mmHg; Blood Pressure (mmHg) 9 hrs. ([2]; 1 mg/kg): −22 mmHg; Blood Pressure (mmHg) 12 hrs. ([2]; 1 mg/kg): −23 mmHg; Blood Pressure (mmHg) 1 hr. [4]: −15 mmHg; Blood Pressure (mmHg) 3 hrs. [4]: −42 mmHg; Blood Pressure (mmHg) 6 hrs. [4]: −62 mmHg; Blood Pressure (mmHg) 9 hrs. [4]: −49 mmHg; Blood Pressure (mmHg) 12 hrs. [4]: −37 mmHg; lapse of time until approximately maximum blood pressure depression [4]: six hours
COc1cc2nc(N3CCN(C(=O)c4ccco4)CC3)nc(N)c2cc1OC.Cl [Prazo., prazosin hydrochloride]	−35	−41	−42	−57	−69	−65		one hour	−44	−40	−33	−33	−43	largely decrease normal blood pressure	−48	−41	−43	−40	−36	−41	Blood Pressure (mmHg) 12 hrs. ([1]; 1 mg/kg): −38 mmHg; Blood Pressure (mmHg) 9 hrs. ([1]; 3 mg/kg): −61 mmHg; Blood Pressure (mmHg) 12 hrs. ([1]; 3 mg/kg): −60 mmHg; Blood Pressure (mmHg) 1 hr. ([2]; 1 mg/kg): −27 mmHg; Blood Pressure (mmHg) 3 hrs. ([2]; 1 mg/kg): −21 mmHg; Blood Pressure (mmHg) 6 hrs. ([2]; 1 mg/kg): −23 mmHg; Blood Pressure (mmHg) 9 hrs. ([2]; 1 mg/kg): −23 mmHg; Blood Pressure (mmHg) 12 hrs. ([2]; 1 mg/kg): −24 mmHg; Blood Pressure (mmHg) 1 hr. [4]: −81 mmHg; Blood Pressure (mmHg) 3 hrs. [4]: −62 mmHg; Blood Pressure (mmHg) 6 hrs. [4]: −69 mmHg; Blood Pressure (mmHg) 9 hrs. [4]: −50 mmHg; Blood Pressure (mmHg) 12 hrs. [4]: −36 mmHg; lapse of time until approximately maximum blood pressure depression [4]: one to two hours
